Test results reported in paper PMC6315694, “Synthesis of Pseudellone Analogs and Characterization as Novel T-type Calcium Channel Blockers” (Marine Drugs, 2018).

How the values were obtained:
CaV3.2 = CaV3.2 (Homo sapiens, UniProt O95180); assay: T-type calcium channel window current FLIPR assay, CaV3.2; type: cell-based; settings: FLIPR window current assay, HEK 293 stable, N = 3, mean ± SEM; read-out: IC50 CaV3.2 (LVA CaVs)
Method: (§1) The human embryonic kidney 293 (HEK 293) cell lines (from Emmanuel Bourinet, Montpellier, France) stably expressing CaV3.2 or CaV3.3 were cultured under 5% carbon dioxide at 37 °C in Dulbecco’s Modified Eagle Medium (DMEM) Glutamax (Gibco, Life Technologies, Carlsbad, CA, USA) supplemented with 10% (v/v) fetal bovine serum (FBS), 100 U/mL penicillin, 100 μg/mL streptomycin (Gibco, Life Technologies), and 750 μg/mL geneticin (G418) (Gibco, Life Technologies). The Chinese Hamster Ovary (CHO) cell lines (Emmanuel Bourinet, Montpellier, France) expressing CaV3.1 were cultured under 5% carbon dioxide at 37 °C in Alpha Minimum Essential Media (MEM) Glutamax (Gibco, Life Technologies), supplemented with 10% (v/v) fetal bovine serum (FBS) and 300 μg/mL geneticin (G418) (Gibco, Life Technologies). The human neuroblastoma SH-SY5 Y cells (Victor Diaz, Goettingen, Germany) were cultured under 5% carbon dioxide at 37 °C in RPMI 1640 antibiotic-free medium (Invitrogen, Carlsbad, CA, USA), supplemented with 15% FBS and 2 mM GlutaMAX™ (Invitrogen). D-PBS (Gibco, Life Technologies) was used to wash the cells, and 0.25% Trypsin-EDTA (Gibco, Life Technologies) was used to detach cells from the flask surface. They were split in a ratio of 1:5 (ideally 1000 cells/cm^2) when they reached 70%–80% confluence (every 2–3 days). Transiently transfected CaV3.1HEK293 T cells were used in FLIPR Assays. HEK 293 T cells were cultured under 5% carbon dioxide at 37 °C in DMEM supplemented with 10% (v/v) FBS. D-PBS was used to wash the cells, and 0.25% Trypsin-EDTA was used to detach cells from the flask surface. The cells were split and seeded at 6 million cells per T175 flask, to reach 70%–80% confluence after 24 h. The next day, 12 μg DNA of human CaV3.1 was incubated in 900 μL serum-free DMEM with 36 μL FuGENE HD transfection reagent (Promega Corporation, Madison, WI, US) (1:3 DNA/Fugene ratio) for 20 min, and then the mixture was added into the cell flask slowly, drop by drop. After the transfection, the cells were cultured under 5% carbon dioxide at 37 °C for 24 h and then moved to a 28 °C incubator.
(§2) HEK 293 cells stably expressing CaV3.2 or CaV3.3 were seeded into 384-well black wall clear bottom plates (Corning, Lowell, MA, USA) at a density of 30,000 cells per well. Transiently transfected CaV3.1HEK293 T cells were seeded into 384-well black wall clear bottom plates at a density of 60,000 cells per well. Once the cells reached 90%–95% confluence after 24 h, the media were removed from the wells and replaced with 20 μL of 10% calcium 4 dye (Molecular Devices, Sunnyvale, CA, USA) in HBSS-HEPES (containing 5 mM KCl, 10 mM HEPES, 140 mM NaCl, 10 mM glucose, and 0.5 mM CaCl2, pH 7.4) with 0.1% bovine serum albumin (BSA). The cells were incubated for 30 min at 37 °C in the presence of 5% carbon dioxide. Each well on the reagent plates for the first addition contained 15 μL different concentrations of compounds dissolved in HBSS-HEPES containing 0.1% BSA and <0.1% DMSO and was incubated for 20 min after loading. Positive and negative controls contained 15 μL of HBSS-HEPES (0.1% BSA) alone. The plates were placed in the FLIPR^TETRA (Molecular Devices, Sunnyvale, CA, USA) programmed to measure maximum fluorescence intensity following a second addition of the agonist 5 mM CaCl2. The data acquisition parameters were adjusted as follows: Baseline fluorescence of 1500–2000 arbitrary fluorescence units (AFU), emission wavelength of 515–575 nm, and excitation wavelength of 470–495 nm. HBSS-HEPES (0.1% BSA) was used in the second addition as a negative control. One fluorescence reading was taken before the second addition. Then the fluorescence readings were recorded every two seconds for 300 s. Raw fluorescence readings in the form of relative light units were converted to response over baseline using ScreenWorks® (Molecular Devices, version 3.2.0.14) software.
(§3) Data were plotted and analyzed using GraphPad Prism v7.0 (GraphPad Software Inc., San Diego, CA, USA).

CaV3.3 = CaV3.3 (Homo sapiens, UniProt Q9P0X4); assay: T-type calcium channel window current FLIPR assay, CaV3.3; type: cell-based; settings: for IC50: FLIPR window current assay, HEK 293 stable, N = 3, mean ± SEM, read-out: IC50 CaV3.3 (LVA CaVs)
Method: as §1, §2, §3

human CaV3.1 = target: T1, human CaV3.1 (Homo sapiens, UniProt O43497); assay: T-type calcium channel window current FLIPR assay, CaV3.1; type: cell-based; settings: for IC50: FLIPR window current assay, transiently transfected HEK293T, N = 3, mean ± SEM, read-out: IC50 CaV3.1 (LVA CaVs)
T1 construct: expressed in transfected cells; host or cells: HEK 293T, transient transfection (FuGENE HD)
Method: as §1, §2, §3

N-type CaV2.2 = target: T2, N-type CaV2.2 (Homo sapiens, UniProt Q00975); assay: HVA calcium channel FLIPR assay, N-type (SH-SY5Y cells); type: cell-based; settings: for IC50: 10 µM nifedipine present, N = 3, mean ± SEM, read-out: IC50 CaV2.2 (HVA CaVs)
T2 construct: endogenous in cells
Method: as §1
SH-SY5Y cells were seeded into 384-well black wall clear bottom plates at a density of 15,000 cells per well, resulting in 90%–95% confluence after 24 h. The media were then removed from the wells and replaced with 20 μL of 10% calcium 4 dye (Molecular Devices) in physiological salt solution (PSS) (containing 5.9 mM KCl, 1.4 mM MgCl2, 10 mM HEPES, 1.2 mM NaH2 PO4, 5 mM NaHCO3, 140 mM NaCl, 11.5 mM glucose, and 1.8 mM CaCl2, pH 7.4) with 0.1% BSA. […] Positive control on the first reagent plate contained 15 μL of PSS (0.1% BSA), whereas PSS (0.1% BSA) containing 1 µM CVID and 10 µM nifedipine (final concentration) was used as a negative control. The fluorescence readings were recorded and converted as described previously, and agonist containing 90 mM KCl + 5 mM CaCl2 was used in the second addition.
Data were plotted and analyzed using GraphPad Prism v7.0 (GraphPad Software Inc., San Diego, CA, USA). A four-parameter logistic Hill equation with variable Hill coefficients was fitted to the data for concentration-response curves. Data are means ± SEM of n independent experiments. Statistical analysis was performed with a paired Student’s t-test with statistical significance at p < 0.05.

[1] = system: L-type calcium channel (CaV1); assay: HVA calcium channel FLIPR assay, L-type (SH-SY5Y cells); type: cell-based, human; settings: 1 µM CVID present, N = 3, mean ± SEM, read-out: IC50 CaV1 (HVA CaVs)
Method: as §1
SH-SY5Y cells were seeded into 384-well black wall clear bottom plates at a density of 15,000 cells per well, resulting in 90%–95% confluence after 24 h. […] The fluorescence readings were recorded and converted as described previously, and agonist containing 90 mM KCl + 5 mM CaCl2 was used in the second addition.
Data were plotted and analyzed using GraphPad Prism v7.0 (GraphPad Software Inc., San Diego, CA, USA). […]

[2] = system: voltage-gated calcium channels (VGCCs); assay: FLIPR cell-based assays on VGCCs (overall statement); design: species or system human; settings: all VGCC FLIPR assays (CaV3.1, CaV3.2, CaV3.3, CaV2.2, CaV1)
Method: as §2

[3] = system: T-type calcium channel (CaV3.x); design: method as in PMID 22344687, PMID 19582593; settings: activated current generated from the channel-closed state; cited from earlier work

T2 sequence (Q00975 whole entry): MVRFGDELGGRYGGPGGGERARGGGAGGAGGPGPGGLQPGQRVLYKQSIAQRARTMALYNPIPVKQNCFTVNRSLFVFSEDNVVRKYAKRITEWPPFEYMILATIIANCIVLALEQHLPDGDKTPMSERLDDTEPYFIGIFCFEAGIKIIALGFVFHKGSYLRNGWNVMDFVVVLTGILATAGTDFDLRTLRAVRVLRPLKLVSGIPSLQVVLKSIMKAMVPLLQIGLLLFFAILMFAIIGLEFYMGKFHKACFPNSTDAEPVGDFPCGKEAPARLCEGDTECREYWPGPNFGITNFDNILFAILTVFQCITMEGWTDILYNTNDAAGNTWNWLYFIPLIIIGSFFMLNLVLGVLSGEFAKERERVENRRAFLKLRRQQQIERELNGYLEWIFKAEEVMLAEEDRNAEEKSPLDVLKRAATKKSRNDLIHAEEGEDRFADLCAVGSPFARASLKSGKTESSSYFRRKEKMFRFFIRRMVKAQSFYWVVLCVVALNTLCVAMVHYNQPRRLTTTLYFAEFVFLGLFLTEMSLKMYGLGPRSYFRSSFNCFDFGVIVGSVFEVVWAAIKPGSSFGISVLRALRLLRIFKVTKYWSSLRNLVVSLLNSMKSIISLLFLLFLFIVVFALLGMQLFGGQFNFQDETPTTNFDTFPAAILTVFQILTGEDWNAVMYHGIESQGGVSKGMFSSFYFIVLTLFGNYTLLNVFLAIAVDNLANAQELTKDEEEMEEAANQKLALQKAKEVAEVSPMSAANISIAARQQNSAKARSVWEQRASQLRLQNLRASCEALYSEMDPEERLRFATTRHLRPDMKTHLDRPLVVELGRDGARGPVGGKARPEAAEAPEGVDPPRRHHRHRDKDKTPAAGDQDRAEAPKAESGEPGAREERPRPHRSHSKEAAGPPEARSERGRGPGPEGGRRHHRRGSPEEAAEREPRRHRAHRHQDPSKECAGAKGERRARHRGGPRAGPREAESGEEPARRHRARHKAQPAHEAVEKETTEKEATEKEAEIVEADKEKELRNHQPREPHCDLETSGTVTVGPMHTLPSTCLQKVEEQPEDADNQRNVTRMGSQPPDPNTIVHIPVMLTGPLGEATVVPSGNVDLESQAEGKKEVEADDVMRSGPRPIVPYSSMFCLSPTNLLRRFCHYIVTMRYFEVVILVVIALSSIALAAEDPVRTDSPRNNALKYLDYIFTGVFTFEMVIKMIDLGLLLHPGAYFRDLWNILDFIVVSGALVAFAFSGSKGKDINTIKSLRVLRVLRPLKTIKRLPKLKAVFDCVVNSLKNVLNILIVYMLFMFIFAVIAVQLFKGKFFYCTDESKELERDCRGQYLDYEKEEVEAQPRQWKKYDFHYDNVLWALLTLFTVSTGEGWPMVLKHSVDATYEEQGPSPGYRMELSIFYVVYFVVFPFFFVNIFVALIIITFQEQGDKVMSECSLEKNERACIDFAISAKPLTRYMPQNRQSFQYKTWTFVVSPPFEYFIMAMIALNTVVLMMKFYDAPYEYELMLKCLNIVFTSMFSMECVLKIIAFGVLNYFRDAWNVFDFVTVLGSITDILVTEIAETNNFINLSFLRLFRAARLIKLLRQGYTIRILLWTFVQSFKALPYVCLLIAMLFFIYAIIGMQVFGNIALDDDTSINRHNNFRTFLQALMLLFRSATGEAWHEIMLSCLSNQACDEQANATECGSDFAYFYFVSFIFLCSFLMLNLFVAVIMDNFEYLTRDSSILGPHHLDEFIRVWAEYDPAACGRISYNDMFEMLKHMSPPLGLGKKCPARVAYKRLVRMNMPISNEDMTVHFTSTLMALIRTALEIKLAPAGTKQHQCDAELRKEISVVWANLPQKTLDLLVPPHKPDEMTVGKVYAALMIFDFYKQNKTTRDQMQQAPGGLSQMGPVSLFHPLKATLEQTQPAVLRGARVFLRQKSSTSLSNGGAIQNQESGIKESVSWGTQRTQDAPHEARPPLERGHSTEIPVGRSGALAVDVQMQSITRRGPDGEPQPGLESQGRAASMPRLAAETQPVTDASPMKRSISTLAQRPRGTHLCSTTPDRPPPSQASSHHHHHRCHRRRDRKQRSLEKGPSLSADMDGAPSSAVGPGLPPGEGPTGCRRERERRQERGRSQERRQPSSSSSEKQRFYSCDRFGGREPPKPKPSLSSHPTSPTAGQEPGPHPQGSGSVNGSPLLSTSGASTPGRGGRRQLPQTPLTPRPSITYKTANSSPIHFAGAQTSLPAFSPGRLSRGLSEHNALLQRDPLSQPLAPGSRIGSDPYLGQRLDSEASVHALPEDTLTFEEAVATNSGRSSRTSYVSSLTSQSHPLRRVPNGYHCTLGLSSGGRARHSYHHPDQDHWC
T2 sequence (P54284 whole entry partner): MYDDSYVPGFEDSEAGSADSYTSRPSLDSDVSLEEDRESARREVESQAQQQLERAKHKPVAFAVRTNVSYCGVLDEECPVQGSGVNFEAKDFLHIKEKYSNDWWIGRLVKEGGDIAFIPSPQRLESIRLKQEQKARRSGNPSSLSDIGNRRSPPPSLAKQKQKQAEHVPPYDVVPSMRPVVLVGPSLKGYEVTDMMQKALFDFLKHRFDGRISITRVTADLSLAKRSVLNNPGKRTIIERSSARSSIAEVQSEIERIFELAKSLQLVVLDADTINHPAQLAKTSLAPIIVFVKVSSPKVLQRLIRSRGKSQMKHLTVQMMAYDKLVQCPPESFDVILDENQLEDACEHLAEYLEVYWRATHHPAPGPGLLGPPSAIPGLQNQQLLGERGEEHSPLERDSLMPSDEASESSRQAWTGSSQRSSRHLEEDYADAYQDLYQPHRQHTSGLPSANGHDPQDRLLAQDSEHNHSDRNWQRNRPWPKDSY
T2 sequence (P54289 25-946 partner limits assumed): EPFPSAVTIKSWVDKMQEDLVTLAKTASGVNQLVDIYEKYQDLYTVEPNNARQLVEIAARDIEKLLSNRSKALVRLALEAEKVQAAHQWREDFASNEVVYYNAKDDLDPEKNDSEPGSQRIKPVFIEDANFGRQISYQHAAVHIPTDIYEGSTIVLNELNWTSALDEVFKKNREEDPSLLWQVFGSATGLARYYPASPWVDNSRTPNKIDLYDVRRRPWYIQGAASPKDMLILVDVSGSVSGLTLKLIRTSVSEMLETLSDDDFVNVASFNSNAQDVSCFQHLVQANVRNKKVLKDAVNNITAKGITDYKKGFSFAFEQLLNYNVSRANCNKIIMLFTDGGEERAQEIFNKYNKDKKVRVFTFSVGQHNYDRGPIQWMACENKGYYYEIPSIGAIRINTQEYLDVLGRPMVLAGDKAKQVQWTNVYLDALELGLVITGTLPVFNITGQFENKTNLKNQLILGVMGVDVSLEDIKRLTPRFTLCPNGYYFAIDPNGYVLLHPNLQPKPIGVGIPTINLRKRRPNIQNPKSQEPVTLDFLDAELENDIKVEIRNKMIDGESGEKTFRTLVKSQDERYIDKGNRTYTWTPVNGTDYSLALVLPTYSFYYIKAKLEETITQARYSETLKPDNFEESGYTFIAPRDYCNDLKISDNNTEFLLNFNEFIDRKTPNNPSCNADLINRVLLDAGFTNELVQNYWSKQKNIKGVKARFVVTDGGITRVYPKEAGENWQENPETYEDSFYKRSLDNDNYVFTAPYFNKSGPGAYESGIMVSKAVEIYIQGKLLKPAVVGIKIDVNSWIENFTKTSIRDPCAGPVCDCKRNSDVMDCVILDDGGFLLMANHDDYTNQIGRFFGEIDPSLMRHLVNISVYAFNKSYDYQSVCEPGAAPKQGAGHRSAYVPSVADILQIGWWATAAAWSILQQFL
T2 sequence (P54289 947-1103 partner limits assumed): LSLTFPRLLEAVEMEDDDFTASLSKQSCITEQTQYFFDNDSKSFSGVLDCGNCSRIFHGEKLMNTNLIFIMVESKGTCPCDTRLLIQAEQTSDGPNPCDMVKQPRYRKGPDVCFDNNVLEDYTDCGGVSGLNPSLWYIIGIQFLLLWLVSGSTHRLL

Compound | IC50 (CaV3.2) | IC50 (CaV3.3) | Kind of block of CaV3.1, in words (human CaV3.1; FLIPR) | IC50 (human CaV3.1) | Emax (human CaV3.1; FLIPR, n = 3, read-out: Emax, inhibition for CaV3.1) | Further reduced potency for CaV3.3 compared to 2 (CaV3.3; FLIPR) | Kind of block of CaV2.2, in words (N-type CaV2.2) | IC50 (N-type CaV2.2; SH-SY5Y) | Emax (N-type CaV2.2; SH-SY5Y, n = 3, read-out: Emax, inhibition for N-type CaV2.2) | IC50 [1] | Inhibition of Ca2+ responses, in words [2] | Potency for T-type window currents versus activated current, in words [3]
O=c1[nH]c2ccccc2n1C1CCN(CCCC(c2ccc(F)cc2)c2ccc(F)cc2)CC1 [pimozide, reference compound] | 4.2 ± 1.06 µM | 7.71 ± 0.7 µM |  |  |  |  |  |  |  |  |  | 
CNC(=O)C(NC(=O)C(C)(c1c[nH]c2ccccc12)c1c[nH]c2ccccc12)C(=O)c1c[nH]c2ccccc12 (stereo not drawn) [Compound 1, Pseudellone C] | 44 ± 1.6 µM | 26.6 ± 1.23 µM | partial blocking | 53.5 ± 2.72 µM | 63.6% | > 3 fold | partial blocking | 82.5 ± 7.6 µM | 39.3% | 322 ± 21.6 µM | weak calcium channel blocker | 
CC(C)(C)NC(=O)CN1CCC(CNC(=O)c2cc(F)cc(Cl)c2)CC1 [Compound Z944] |  |  |  |  |  |  |  |  |  |  |  | better potency for T-type window currents than the activated current
CC(C(=O)O)(c1c[nH]c2ccccc12)c1c[nH]c2ccccc12 [Compound 4, 2,2-di(1H-indol-3-yl)propanoic Acid] | 132 ± 6.13 µM | 119 ± 8.66 µM |  | 72.28 ± 0.41 µM |  |  |  | 179 ± 19.7 µM |  | 264 ± 11.9 µM | poor inhibition | 
CC(C(=O)N[C@@H](Cc1c[nH]c2ccccc12)C(=O)O)(c1c[nH]c2ccccc12)c1c[nH]c2ccccc12 [Compound 3a, (2,2-di(1H-indol-3-yl)propanoyl)-L-tryptophan] | 80.7 ± 6.21 µM | 90.1 ± 4.99 µM |  | 122 ± 5.96 µM |  |  |  | 147 ± 1.72 µM |  | 132 ± 1.63 µM | poor inhibition | 
C[C@@H](NC(=O)Cc1ccc(C2CC2)cc1)c1ccc(OCC(F)(F)F)cn1 [TTA-A2] |  |  |  |  |  |  |  |  |  |  |  | better potency for T-type window currents than the activated current
